Consider 2 compounds from patent US11484516B2, “Agents for increasing meibomian gland lipid secretion” (Azura Ophthalmics Ltd., priority 2017, dated 2022).

Test [1] deals with 3D Sebocytes culture (human cell line SEBO662). The test is described as follows: Lipid accumulation (Oil-red-O staining) in 3D model culture of Sebocytes. It is filed as cell-based. The conditions noted are these: 14 days incubation, lipid droplet surface area. From the text: Since secretory cells (meibocytes) of meibomian glands, share similarities with that of the secretory cells (sebocytes) of sebaceous glands, as can be validated from their similar structure, similar function and their joint embryologic development (Knop 2011_IOVS) the effect of Thiol containing Lipids on lipid production can be evaluated in a 3D model culture of Sebocytes. See also: Barrault 2012, Immortalized sebocytes can spontaneously differentiate into a sebaceous-like phenotype when cultured as a 3D epithelium, Exp. Derm, 21:299-319
The effect of different compounds on lipid synthesis was evaluated, in a 3D model culture of Sebocytes. Drug candidates were compounds comprising a thiol group. Selenium disulfide (SeS2 dispersed in CarboxymethylCellulose—CMC) as a positive control. Since Sebocytes differentiation is associated with increased lipid synthesis and accumulation, evaluation of proliferation and differentiation was done by quantifying lipid accumulation in the 3D Sebocytes culture (human cell line—SEBO662). Lipid accumulation was evaluated by lipid staining with Oil red staining.
Sebocytes SEBO662 were cultured into a three dimension (3D) epithelium and differentiated to a sebaceous-like phenotype. The Sebocytes were treated or not (control) with the test compounds and incubated for 14 days. All experiments were performed 3 times. After incubation, tissues were snap-frozen. Formaldehyde-fixed cryo sections were stained using an Oil-red-O solution and counterstained using haematoxylin. For each test condition, the sections were observed using a light microscope equipped with a camera. Five pictures were taken per replicate, making 15 values per treatment condition. The lipid content in each sample was quantified by calculation of the lipid droplet surface area. Quantitative comparison of all data points between lipid's droplet surface area of tested compounds versus control was performed

A short description of test [2]: Ex vivo free thiol determination in the human skin model system. The following applies: non-toxic concentrations. As to the method:
(§1) Dose response and time course analyses was performed initially in order to evaluate the impact of bucillamine on HaCaT cell viability. Then, selected non-toxic concentrations were further evaluated by BrdU incorporation to determine the ability of the test item to reduce the keratinocyte proliferation rate. In addition, the ability of the test items to reduce thiol moieties, and therefore loosen the blockage of the meibomian gland, was tested on stratum corneum obtained from human skin.
(§2) The cells were incubated without or with six concentrations of the test item, for 24, 48 and 72 hr at 37° C. with 5% CO2 under humidified conditions. At the end of each incubation period, cell viability was measured by MTT assay. A blank control was subtracted from all the measurements. HaCaT Turnover Rate Determination The proliferation rate of HaCaT cells upon treatments with the test item was examined by using the BrdU assay. Colorimetric evaluation of the turnover rate was recorded by ELISA reader. Ex Vivo Assessment in the Human Skin Model System The human skin organ culture was obtained from healthy patient undergoing plastic surgery. The study was initiated the day of surgery.
To isolate the free thiol from the mixture of the samples, samples were incubated with equal volume of TCA (trichloroacetic acid) for 5 min. […] The pellets were evaluated.

The subject of another test is HaCaT cells. The test is described as follows: HaCaT turnover rate determination (BrdU assay). The following applies: BrdU incorporation, non-toxic concentrations. It is filed as cell-based. As to the method: as §1, §2

Each structure is given as a SMILES string.

Regarding `CC(C)(S)C(=O)N[C@@H](CS)C(=O)O` [Bucillamine, bucillamine], the “lipid accumulation in the upper region of the 3D Sebocytes (% of the control)” value in test [1] (0.01 μM) was 115 % of the control; in test [1] (0.1 μM), 172 % of the control; in test [1] (1 μM), 214 % of the control. Moreover, the “increase of free thiol moieties (keratolytic efficacy)” value in test [2] is given as “approx. 6 fold”. Moreover, the “keratostatic efficacy: turnover rate of the keratinocytes cells” value with HaCaT cells was “reducing the turnover rate”.
On to `S=[Se]=S` [Selenium disulfide], for which the “lipid accumulation in the upper region of the 3D Sebocytes (% of the control)” value in test [1] (0.01 μM) is reported as 282 % of the control; in test [1] (0.1 μM), 348 % of the control.
